Data: patent US20180000085A1, “USE OF PICOLINAMIDE COMPOUNDS WITH FUNGICIDAL ACTIVITY” (DOW AGROSCIENCES LLC, priority 2014, published 2018)

Columns and labels:
Zymoseptoria tritici = assay: Leaf blotch of wheat (SEPTTR) disease control on wheat seedlings; assay type: in vivo; parameters: key to SEPTTR 1DP, HV activity at 100 ppm (% control rating) / SEPTTR 3DC, HV activity at 100 ppm (% control rating) / SEPTTR disease control, 1DP / SEPTTR disease control, 3DC / SEPTTR 1DP disease control rating, HV activity / SEPTTR 3DC disease control rating, HV activity / SEPTTR 3DC, LV activity at 125.1 g/H (% Control rating) / SEPTTR 1DP, LV activity at 125.1 g/H (% Control rating) / SEPTTR 1DP disease control rating, LV activity at 125.1 g/H / SEPTTR 3DC disease control rating, LV activity at 125.1 g/H / SEPTTR 3DC disease control rating, HV activity at 100 ppm / SEPTTR 1DP disease control rating, HV activity at 100 ppm / HV activity at 100 ppm SEPTTR 3DC (disease control rating) / HV activity at 100 ppm SEPTTR 1DP (disease control rating) / LV activity at 125.1 g/H SEPTTR 1DP (disease control rating) / LV activity at 125.1 g/H SEPTTR 3DC (disease control rating): A: > 80; B: ≤ 80; C: Not Tested; D: No Activity Observed in the Reported Assay; settings: for SEPTTR 1DP disease control rating, HV activity / SEPTTR 3DC disease control rating, HV activity: HV application at 100 ppm; for SEPTTR 1DP disease control rating, HV activity / LV activity at 125.1 g/H SEPTTR 1DP (disease control rating) / SEPTTR 1DP, LV activity at 125.1 g/H (% Control rating): 1 Day Protectant; for SEPTTR 1DP disease control rating, HV activity / SEPTTR 3DC disease control rating, HV activity / LV activity at 125.1 g/H SEPTTR 1DP (disease control rating) / LV activity at 125.1 g/H SEPTTR 3DC (disease control rating): wheat leaf blotch; for SEPTTR 3DC disease control rating, HV activity / LV activity at 125.1 g/H SEPTTR 3DC (disease control rating) / SEPTTR 3DC, LV activity at 125.1 g/H (% Control rating): 3 Day Curative
Puccinia triticina = assay: Wheat brown rust (PUCCRT) disease control on wheat seedlings; assay type: in vivo; parameters: key to PUCCRT 3DC, HV activity at 100 ppm (% control rating) / PUCCRT disease control, 3DC / PUCCRT 1DP disease control rating, HV activity / PUCCRT 3DC disease control rating, HV activity / PUCCRT 3DC, LV activity at 125.1 g/H (% Control rating) / PUCCRT 1DP, LV activity at 125.1 g/H (% Control rating) / PUCCRT 3DC disease control rating, LV activity at 125.1 g/H / PUCCRT 1DP disease control rating, LV activity at 125.1 g/H / PUCCRT 3DC disease control rating, HV activity at 100 ppm / PUCCRT 1DP disease control rating, HV activity at 100 ppm / HV activity at 100 ppm PUCCRT 3DC (disease control rating) / LV activity at 125.1 g/H PUCCRT 1DP (disease control rating) / LV activity at 125.1 g/H PUCCRT 3DC (disease control rating): A: > 80; B: ≤ 80; C: Not Tested; D: No Activity Observed in the Reported Assay; settings: for PUCCRT 1DP disease control rating, HV activity / PUCCRT 3DC disease control rating, HV activity: HV application at 100 ppm; for PUCCRT 1DP disease control rating, HV activity / LV activity at 125.1 g/H PUCCRT 1DP (disease control rating) / PUCCRT 1DP, LV activity at 125.1 g/H (% Control rating): 1 Day Protectant; for PUCCRT 1DP disease control rating, HV activity / PUCCRT 3DC disease control rating, HV activity / LV activity at 125.1 g/H PUCCRT 1DP (disease control rating) / LV activity at 125.1 g/H PUCCRT 3DC (disease control rating): wheat brown rust; for PUCCRT 3DC disease control rating, HV activity / LV activity at 125.1 g/H PUCCRT 3DC (disease control rating) / PUCCRT 3DC, LV activity at 125.1 g/H (% Control rating): 3 Day Curative
[1] = low volume application, 125.1 g/H
[2] = low volume application, 125.1 g/H, 1 day protectant
[3] = low volume application, 125.1 g/H, 3 day curative
[4] = high volume application, 100 ppm, 1 day protectant
[5] = high volume application, 100 ppm, 3 day curative

SMILES: CC(NC(=O)c1ncccc1O)C(=O)OC(C)C(Oc1ccccc1)C(C)C (stereo not drawn) [Cmpd 424]
- SEPTTR 1DP disease control rating, HV activity (Zymoseptoria tritici): A (> 80)
- SEPTTR 3DC disease control rating, HV activity (Zymoseptoria tritici): A (> 80)
- PUCCRT 1DP disease control rating, HV activity (Puccinia triticina): A (> 80)
- PUCCRT 3DC disease control rating, HV activity (Puccinia triticina): A (> 80)

SMILES: COc1ccnc(C(=O)N[C@@H](C)C(=O)O[C@@H](C)[C@@H](Cc2ccccc2)OCC2CC2)c1O [Cmpd 344]
- SEPTTR 1DP disease control rating, HV activity (Zymoseptoria tritici): D
- SEPTTR 3DC disease control rating, HV activity (Zymoseptoria tritici): B (≤ 80)
- PUCCRT 1DP disease control rating, HV activity (Puccinia triticina): B (≤ 80)
- PUCCRT 3DC disease control rating, HV activity (Puccinia triticina): A (> 80)

SMILES: COc1ccnc(C(=O)N[C@@H](C)C(=O)O[C@@H](C)[C@@H](CC(C)C)Oc2ccc(C)cc2Cl)c1OC(C)=O [Cmpd 1115]
- LV activity at 125.1 g/H SEPTTR 1DP (disease control rating) (Zymoseptoria tritici; [1]): B (≤ 80)
- LV activity at 125.1 g/H SEPTTR 3DC (disease control rating) (Zymoseptoria tritici; [1]): B (≤ 80)
- LV activity at 125.1 g/H PUCCRT 1DP (disease control rating) (Puccinia triticina; [1]): A (> 80)
- LV activity at 125.1 g/H PUCCRT 3DC (disease control rating) (Puccinia triticina; [1]): A (> 80)

SMILES: COc1ccnc(C(=O)N[C@@H](Cc2ccccc2)C(=O)O[C@@H](C)[C@H](Oc2cccc(F)c2)c2ccccc2)c1OC(C)=O [Cmpd 577]
- SEPTTR 1DP, LV activity at 125.1 g/H (% Control rating) (Zymoseptoria tritici; [1]): B (≤ 80)
- SEPTTR 3DC, LV activity at 125.1 g/H (% Control rating) (Zymoseptoria tritici; [1]): D
- PUCCRT 1DP, LV activity at 125.1 g/H (% Control rating) (Puccinia triticina; [1]): A (> 80)
- PUCCRT 3DC, LV activity at 125.1 g/H (% Control rating) (Puccinia triticina; [1]): B (≤ 80)

SMILES: COc1ccnc(C(=O)N[C@H](C(=O)O[C@@H](C)[C@H](Oc2ccc(C(F)(F)F)cc2)c2ccccc2)C(C)C)c1OC(C)=O [Cmpd 585]
- SEPTTR 1DP, LV activity at 125.1 g/H (% Control rating) (Zymoseptoria tritici; [1]): A (> 80)
- SEPTTR 3DC, LV activity at 125.1 g/H (% Control rating) (Zymoseptoria tritici; [1]): D
- PUCCRT 1DP, LV activity at 125.1 g/H (% Control rating) (Puccinia triticina; [1]): A (> 80)
- PUCCRT 3DC, LV activity at 125.1 g/H (% Control rating) (Puccinia triticina; [1]): B (≤ 80)

SMILES: C=CC[C@@H](OCC(=C)C)[C@H](C)OC(=O)[C@H](C)NC(=O)c1nccc(OC)c1OCOC(C)=O [Cmpd 1082]
- LV activity at 125.1 g/H SEPTTR 1DP (disease control rating) (Zymoseptoria tritici; [1]): D
- LV activity at 125.1 g/H SEPTTR 3DC (disease control rating) (Zymoseptoria tritici; [1]): D
- LV activity at 125.1 g/H PUCCRT 1DP (disease control rating) (Puccinia triticina; [1]): B (≤ 80)
- LV activity at 125.1 g/H PUCCRT 3DC (disease control rating) (Puccinia triticina; [1]): A (> 80)

SMILES: CCC(Cc1ccccc1)C(OCC(C)C)C(C)OC(=O)CNC(=O)c1nccc(OC)c1OCOC(C)=O (stereo not drawn) [Cmpd 445]
- SEPTTR 1DP disease control rating, HV activity (Zymoseptoria tritici): B (≤ 80)
- SEPTTR 3DC disease control rating, HV activity (Zymoseptoria tritici): D
- PUCCRT 1DP disease control rating, HV activity (Puccinia triticina): A (> 80)
- PUCCRT 3DC disease control rating, HV activity (Puccinia triticina): A (> 80)

SMILES: COc1ccnc(C(=O)N[C@@H](C)C(=O)O[C@@H](C)[C@@H](OCC(C)C)c2ccccc2)c1OC(C)=O [Cmpd 878]
- SEPTTR 1DP disease control rating, LV activity at 125.1 g/H (Zymoseptoria tritici; [2]): B (≤ 80)
- SEPTTR 3DC disease control rating, LV activity at 125.1 g/H (Zymoseptoria tritici; [3]): B (≤ 80)
- PUCCRT 1DP disease control rating, LV activity at 125.1 g/H (Puccinia triticina; [2]): A (> 80)
- PUCCRT 3DC disease control rating, LV activity at 125.1 g/H (Puccinia triticina; [3]): A (> 80)

SMILES: CCC(C)C(NC(=O)c1nccc(OC)c1O)C(=O)OC(C)C(Oc1cc(F)ccc1F)C(C)C (stereo not drawn) [Cmpd 395]
- SEPTTR 1DP disease control rating, HV activity (Zymoseptoria tritici): B (≤ 80)
- SEPTTR 3DC disease control rating, HV activity (Zymoseptoria tritici): B (≤ 80)
- PUCCRT 1DP disease control rating, HV activity (Puccinia triticina): B (≤ 80)
- PUCCRT 3DC disease control rating, HV activity (Puccinia triticina): D

SMILES: COc1cc(O[C@H](C2CC2)[C@H](C)OC(=O)[C@H](C)NC(=O)c2nccc(OC)c2O)ccc1Cl [Cmpd 1000]
- SEPTTR 1DP disease control rating, HV activity at 100 ppm (Zymoseptoria tritici; [4]): B (≤ 80)
- SEPTTR 3DC disease control rating, HV activity at 100 ppm (Zymoseptoria tritici; [5]): B (≤ 80)
- PUCCRT 1DP disease control rating, HV activity at 100 ppm (Puccinia triticina; [4]): A (> 80)
- PUCCRT 3DC disease control rating, HV activity at 100 ppm (Puccinia triticina; [5]): A (> 80)

SMILES: CC[C@@H](CCC(C)C)[C@H](OCC1CC1)[C@H](C)OC(=O)[C@H](C)NC(=O)c1nccc(OC)c1OC(C)=O [Cmpd 504]
- SEPTTR 1DP, LV activity at 125.1 g/H (% Control rating) (Zymoseptoria tritici; [1]): B (≤ 80)
- SEPTTR 3DC, LV activity at 125.1 g/H (% Control rating) (Zymoseptoria tritici; [1]): B (≤ 80)
- PUCCRT 1DP, LV activity at 125.1 g/H (% Control rating) (Puccinia triticina; [1]): A (> 80)
- PUCCRT 3DC, LV activity at 125.1 g/H (% Control rating) (Puccinia triticina; [1]): A (> 80)

SMILES: COc1ccnc(C(=O)NC(C)C(=O)OC(C)C(Oc2cc(F)cc(Cl)c2)C(C)C)c1O (stereo not drawn) [Cmpd 393]
- SEPTTR 1DP disease control rating, HV activity (Zymoseptoria tritici): B (≤ 80)
- SEPTTR 3DC disease control rating, HV activity (Zymoseptoria tritici): A (> 80)
- PUCCRT 1DP disease control rating, HV activity (Puccinia triticina): A (> 80)
- PUCCRT 3DC disease control rating, HV activity (Puccinia triticina): B (≤ 80)
